Experimental data reported in patent EP4273147A1, “SUBSTITUTED SPIROLACTAMS, SALTS THEREOF AND THEIR USE AS HERBICIDALLY ACTIVE SUBSTANCES” (Bayer Aktiengesellschaft, priority 2022, dated 2023).

Key:
TRZAS [1] = assay: Pre-emergence effects on crop plants (Table D2); type: in vivo, Triticum aestivum; details: crop plant; application rate 80 g/ha; visual grading after ca. 3 weeks
POAAN [2] = assay: Herbicidal post-emergence action (Table B7); type: in vivo, Poa annua; details: application rate 1280 g/ha
How it was run: (§1)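 Each pot held sandy loam sown with a single mono- or dicot weed species, grown under controlled greenhouse conditions. Test plants were sprayed at the one-leaf stage, and after about 3 weeks of further growth the percentage activity relative to untreated plants was rated visually.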

MATIN [3] = assay: Herbicidal pre-emergence action (Table A4); type: in vivo, Matricaria inodora; details: application rate 1280 g/ha; visual grading after ca. 3 weeks
How it was run: (§2)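 Pots: sandy loam. Sowing: one mono- and one dicot weed species together per pot. Seeds covered with soil.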

ORYZA [4] = assay: Pre-emergence effects on crop plants (Table D3); details: crop plant; application rate 80 g/ha; visual grading after ca. 3 weeks
ZEAMX [5] = assay: Pre-emergence effects on crop plants (Table D1); type: in vivo, Zea mays; details: crop plant, visual grading after ca. 3 weeks
Description: Seeds of mono- and dicotyledonous weed plants and crop plants were sown, in plastic or organic planting pots, in sandy loam and covered with soil. The compounds according to the invention, formulated in the form of wettable powders (WP) or as emulsifiable concentrates (EC), were applied to the surface of the covering soil as aqueous suspension or emulsion, with the addition of 0.5% of an additive, at an application rate of 600 1 of water/ha (converted).
Following treatment, the pots were placed in a greenhouse and kept under optimum growth conditions for the test plants.

ECHCG [6] = assay: Herbicidal pre-emergence action (Table A2); type: in vivo, Echinochloa crus-galli; details: visual grading after ca. 3 weeks
How it was run: as §2

SETVI [7] = assay: Herbicidal pre-emergence action, section C (Table C10); type: in vivo, Setaria viridis; details: visual grading after ca. 3 weeks
SETVI [8] = assay: Herbicidal pre-emergence action (Table A5); type: in vivo, Setaria viridis; details: application rate 320 g/ha; visual grading after ca. 3 weeks
How it was run: as §2

ECHCG [9] = assay: Herbicidal pre-emergence action, section C (Table C6); type: in vivo, Echinochloa crus-galli; details: visual grading after ca. 3 weeks
TRZAS [10] = assay: Post-emergence effects on crop plants (Table F2); type: in vivo, Triticum aestivum; details: application rate 320 g/ha, crop plant TRZAS
Description: (§3) 2 to 3 weeks after sowing, the test plants were sprayed in the single-leaf stage.

ECHCG [11] = assay: Herbicidal post-emergence action (Table B3); type: in vivo, Echinochloa crus-galli; details: application rate 1280 g/ha; rated visually after about 3 weeks
How it was run: as §1

POAAN [12] = assay: Herbicidal pre-emergence action (Table A7); type: in vivo, Poa annua; details: visual grading after ca. 3 weeks
How it was run: as §2

ORYZA [13] = assay: Post-emergence effects on crop plants (Table F3); type: in vivo, Oryza sativa; details: application rate 320 g/ha, crop plant ORYZA
Description: as §3

ZEAMX [14] = assay: Post-emergence effects on crop plants (Table F1); type: in vivo, Zea mays; details: crop plant ZEAMX
Description: as §3

LOLRI [15] = assay: Herbicidal pre-emergence action (Table A3); type: in vivo, Lolium rigidum; details: visual grading after ca. 3 weeks
How it was run: as §2

ABUTH [16] = assay: Herbicidal pre-emergence action, section C (Table C1); type: in vivo, Abutilon theophrasti; details: application rate 320 g/ha; visual grading after ca. 3 weeks
GLXMA = assay: Pre-emergence effects on crop plants (Table D4); type: in vivo, Glycine max; details: crop plant, visual grading after ca. 3 weeks
ECHCG [17] = assay: Herbicidal post-emergence action, section E (Table E5); type: in vivo, Echinochloa crus-galli; details: application rate 320 g/ha; assessed visually after ca. 3 weeks
Description: as §3

ABUTH [18] = assay: Herbicidal pre-emergence action (Table A1); type: in vivo, Abutilon theophrasti; details: application rate 1280 g/ha; visual grading after ca. 3 weeks vs untreated controls (100% = plants have died off, 0% = as control plants)
How it was run: as §2

ALOMY [19] = assay: Herbicidal pre-emergence action, section C (Table C2); type: in vivo, Alopecurus myosuroides; details: application rate 320 g/ha; visual grading after ca. 3 weeks
Description: Seeds of mono- and dicotyledonous weed plants and crop plants were sown, in plastic or organic planting pots, in sandy loam and covered with soil. The compounds according to the invention, formulated in the form of wettable powders (WP) or as emulsifiable concentrates (EC), were applied to the surface of the covering soil as aqueous suspension or emulsion, with the addition of 0.5% of an additive, at an application rate of 600 1 of water/ha (converted). Following treatment, the pots were placed in a greenhouse and kept under optimum growth conditions for the test plants.

ABUTH [20] = assay: Herbicidal post-emergence action (Table B1); type: in vivo, Abutilon theophrasti; details: application rate 1280 g/ha; treated at one-leaf stage; rated visually after about 3 weeks vs untreated controls (100% = plants have died, 0% = like control plants)
Procedure: Seeds of mono- and dicotyledonous weed plants were placed in plastic pots in sandy loam soil (doubly sown with in each case one species of mono- or dicotyledonous weed plants per pot), covered with soil and cultivated in a greenhouse under controlled growth conditions. 2 to 3 weeks after sowing, the test plants were treated at the one-leaf stage. […] After the test plants had been kept in the greenhouse under optimum growth conditions for about 3 weeks, the activity of the preparations was rated visually in comparison to untreated controls. For example, 100% activity = the plants have died, 0% activity = like control plants.

VERPE [21] = assay: Herbicidal pre-emergence action, section C (Table C11); type: in vivo, Veronica persica; details: application rate 320 g/ha; visual grading after ca. 3 weeks
BRSNW = assay: Post-emergence effects on crop plants (Table F5); type: in vivo, Brassica napus; details: application rate 80 g/ha, crop plant BRSNW
Description: as §3

LOLRI [22] = assay: Herbicidal pre-emergence action, section C (Table C7); type: in vivo, Lolium rigidum; details: application rate 320 g/ha; visual grading after ca. 3 weeks
STEME = assay: Herbicidal pre-emergence action (Table A6); type: in vivo, Stellaria media; details: visual grading after ca. 3 weeks
How it was run: as §2

DIGSA [23] = assay: Herbicidal pre-emergence action (Table A12); type: in vivo, Digitaria sanguinalis; details: visual grading after ca. 3 weeks
How it was run: as §2

VERPE [24] = assay: Herbicidal post-emergence action, section E (Table E9); type: in vivo, Veronica persica; details: application rate 320 g/ha; assessed visually after ca. 3 weeks
Description: as §3

KCHSC = assay: Herbicidal pre-emergence action (Table A10); type: in vivo, Kochia scoparia; details: visual grading after ca. 3 weeks
How it was run: as §2

MATIN [25] = assay: Herbicidal pre-emergence action, section C (Table C8); type: in vivo, Matricaria inodora; details: application rate 320 g/ha; visual grading after ca. 3 weeks
POLCO = assay: Herbicidal pre-emergence action, section C (Table C9); type: in vivo, Polygonum convolvulus; details: application rate 320 g/ha; visual grading after ca. 3 weeks
VIOTR = assay: Herbicidal pre-emergence action, section C (Table C12); type: in vivo, Viola tricolor; details: visual grading after ca. 3 weeks
AMARE = assay: Herbicidal pre-emergence action (Table A8); type: in vivo, Amaranthus retroflexus; details: application rate 1280 g/ha; visual grading after ca. 3 weeks vs untreated controls (100% = plants have died off, 0% = as control plants)
Description: Seeds of mono- and dicotyledonous weed plants were sown in plastic pots (double sowings with one species of mono- and one species of dicotyledonous weed plants per pot), in sandy loam, and covered with soil.

SETVI [26] = assay: Herbicidal post-emergence action (Table B8); type: in vivo, Setaria viridis; details: application rate 1280 g/ha
How it was run: as §1

DIGSA [27] = assay: Herbicidal pre-emergence action, section C (Table C5); type: in vivo, Digitaria sanguinalis; details: application rate 320 g/ha; visual grading after ca. 3 weeks
VERPE [28] = assay: Herbicidal pre-emergence action (Table A11); type: in vivo, Veronica persica; details: application rate 1280 g/ha; visual grading after ca. 3 weeks
How it was run: as §2

ALOMY [29] = assay: Herbicidal pre-emergence action (Table A9); type: in vivo, Alopecurus myosuroides; details: application rate 1280 g/ha; visual grading after ca. 3 weeks
How it was run: as §2

pre-emergence activity against TRZAS (TRZAS [1]) [%]	pre-emergence activity against ORYZA (ORYZA [4]) [%]	pre-emergence activity against ZEAMX (ZEAMX [5]; application rate 80 g/ha) [%]	Structure (SMILES)	post-emergence activity against POAAN (POAAN [2]) [%]	pre-emergence activity against MATIN (MATIN [3]) [%]	pre-emergence activity against ECHCG (ECHCG [6]; application rate 320 g/ha) [%]	pre-emergence activity against SETVI (SETVI [8]) [%]	post-emergence activity against TRZAS (TRZAS [10]) [%]	post-emergence activity against ECHCG (ECHCG [11]) [%]	post-emergence activity against ORYZA (ORYZA [13]) [%]	post-emergence activity against ZEAMX (ZEAMX [14]; application rate 320 g/ha) [%]	pre-emergence activity against LOLRI (LOLRI [15]; application rate 320 g/ha) [%]	pre-emergence activity against ABUTH (ABUTH [16]) [%]	post-emergence activity against ECHCG (ECHCG [17]) [%]	pre-emergence activity against ABUTH (ABUTH [18]) [%]	pre-emergence activity against ALOMY (ALOMY [19]) [%]	post-emergence activity against ABUTH (ABUTH [20]) [%]	pre-emergence activity against VERPE (VERPE [21]) [%]	pre-emergence activity against LOLRI (LOLRI [22]) [%]	pre-emergence activity against SETVI (SETVI [7]; application rate 320 g/ha) [%]	further results
0	0	0	O=C1N(Cc2ccccc2Br)CCCC12CCCN(Cc1c(F)cccc1F)C2=O (racemic) [I-048]	90	90	100	100	20	90	0	20	100	90	80							pre-emergence activity against SETVI (SETVI [7]; application rate 80 g/ha): 100%; pre-emergence activity against ECHCG (ECHCG [9]; application rate 320 g/ha): 100%; pre-emergence activity against POAAN (POAAN [12]; application rate 1280 g/ha): 90%; pre-emergence activity against GLXMA (GLXMA; application rate 320 g/ha): 0%
0	0		O=C1N(Cc2cccc(F)c2F)CCCC12CCN(Cc1c(F)cccc1F)C2=O (racemic) [I-032]	90	90		100	0	90	0		100		80	90	90	90	80	100	100	post-emergence activity against BRSNW (BRSNW): 0%; pre-emergence activity against ZEAMX (ZEAMX [5]; application rate 320 g/ha): 0%; pre-emergence activity against ECHCG (ECHCG [6]; application rate 1280 g/ha): 100%; pre-emergence activity against STEME (STEME; application rate 320 g/ha): 90%; pre-emergence activity against DIGSA (DIGSA [23]; application rate 1280 g/ha): 100%; post-emergence activity against VERPE (VERPE [24]): 90%; pre-emergence activity against KCHSC (KCHSC; application rate 320 g/ha): 90%; pre-emergence activity against MATIN (MATIN [25]): 80%; pre-emergence activity against POLCO (POLCO): 80%; pre-emergence activity against ECHCG (ECHCG [9]; application rate 80 g/ha): 100%; pre-emergence activity against VIOTR (VIOTR; application rate 80 g/ha): 90%; pre-emergence activity against AMARE (AMARE): 90%; post-emergence activity against SETVI (SETVI [26]): 90%; pre-emergence activity against POAAN (POAAN [12]; application rate 320 g/ha): 100%; post-emergence activity against ZEAMX (ZEAMX [14]; application rate 80 g/ha): 20%; pre-emergence activity against DIGSA (DIGSA [27]): 100%; pre-emergence activity against VERPE (VERPE [28]): 90%; pre-emergence activity against GLXMA (GLXMA; application rate 80 g/ha): 0%; pre-emergence activity against ALOMY (ALOMY [29]): 90%
	20	0	O=C1N(Cc2ccccc2)CCCC12CCN(Cc1cccc(F)c1F)C2=O (racemic) [I-039]		90	100	100	0	90	0	20		90		90	100	90	80	90	100	pre-emergence activity against STEME (STEME; application rate 1280 g/ha): 90%; pre-emergence activity against DIGSA (DIGSA [23]; application rate 320 g/ha): 100%; pre-emergence activity against KCHSC (KCHSC; application rate 1280 g/ha): 90%; pre-emergence activity against ECHCG (ECHCG [9]; application rate 80 g/ha): 100%; pre-emergence activity against VIOTR (VIOTR; application rate 320 g/ha): 90%; pre-emergence activity against AMARE (AMARE): 90%; pre-emergence activity against POAAN (POAAN [12]; application rate 320 g/ha): 100%; pre-emergence activity against DIGSA (DIGSA [27]): 100%; pre-emergence activity against VERPE (VERPE [28]): 90%; pre-emergence activity against LOLRI (LOLRI [15]; application rate 1280 g/ha): 100%
